According to paper PMC5011342, “A high throughput drug screening assay to identify compounds that promote oligodendrocyte differentiation using acutely dissociated and purified oligodendrocyte precursor cells” (BMC Research Notes, 2016):
Like-named read-outs stand apart in the source and are kept apart here. Non-standard residues stand in square brackets, D forms with d. Residues, ends and D or L forms follow the SMILES beside them. pGlu = O=C1CC[C@@H](C(=O)O)N1; Thz = O=C(O)[C@@H]1CSCN1

Columns and labels:
[1] = system: acutely dissociated and purified rat OPCs; test: Acute OL differentiation assay (MBP expression/cell, immunofluorescent image quantification); assay type: cell-based; conditions: for activation at 0.08 µM / activation at 0.4 µM / activation at 2 µM / activation at 10 µM: Rattus norvegicus; for activation at 0.08 µM: test compound at 0.08 uM, read-out: 0.08 uM (% Quet); for activation at 0.4 µM: read-out: 0.4 uM (% Quet)
Outline: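 Oligodendrocyte precursor cells were enriched from P6-P7 Sprague–Dawley rat brains by immunopanning (RAN-2 and GalC depletion, O4 selection), plated at 5000 cells/well in serum-free, mitogen-free differentiation media on PDL/laminin 96-well view plates, centrifuged at 200×g, and pre-incubated 1–2 h before test compounds were added in quadruplicate. On DIV4, cells were fixed, stained for MBP and DAPI, imaged automatically, and MBP expression per cell was quantified.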

expanded OPCs = test: cells; conditions: for viability at 0.1 µM / viability at 1 µM / viability at 10 µM: Rattus norvegicus, 72 h
Outline: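 Expanded OPCs seeded at 10,000 cells/well in differentiation media, then exposed to NCC library compounds at 10, 1 and 0.1 µM (quadruplicate, 0.1% DMSO) for three days. Viability read as alamarBlue fluorescence (560/590 nm) after 4 h at 37 °C; tunicamycin 5 ng/ml served as toxicity control.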

[2] = NCC library screen, sheet "All OLga data", relative to quetiapine
[3] = test compound at 0.4 uM, NCC library screen, sheet "All OLga data", relative to quetiapine
[4] = read-out: 0.1 µM (% DMSO), alamarBlue viability, NCC library compound at 0.1 µM, sheet "All Tox data"
[5] = read-out: 1 µM (% DMSO), alamarBlue viability, NCC library compound at 1 µM, sheet "All Tox data"
[6] = read-out: 10 µM (% DMSO), alamarBlue viability, NCC library compound at 10 µM, sheet "All Tox data"
[7] = 2 uM test compound, relative to quetiapine, sheet "All OLga data", read-out: OL differentiation, 2 uM (% Quet)
[8] = 10 uM test compound, relative to quetiapine, sheet "All OLga data", read-out: OL differentiation, 10 uM (% Quet)
[9] = alamarBlue viability of expanded OPCs, compound at 0.1 µM, relative to DMSO control
[10] = alamarBlue viability of expanded OPCs, compound at 1 µM, relative to DMSO control
[11] = alamarBlue viability of expanded OPCs, compound at 10 µM, relative to DMSO control
[12] = read-out: 0.1 µM (% DMSO), alamarBlue viability of expanded OPCs, compound at 0.1 µM, sheet All Tox data
[13] = read-out: 1 µM (% DMSO), alamarBlue viability of expanded OPCs, compound at 1 µM, sheet All Tox data
[14] = read-out: 10 µM (% DMSO), alamarBlue viability of expanded OPCs, compound at 10 µM, sheet All Tox data
[15] = test compound at 2 uM, NCC library screen, sheet "All OLga data", relative to quetiapine, read-out: 2 uM (% Quet)
[16] = test compound at 10 uM, NCC library screen, sheet "All OLga data", relative to quetiapine, read-out: 10 uM (% Quet)
[17] = test compound at 2 uM, MBP expression relative to quetiapine, NCC library screen, sheet "All OLga data", read-out: 2 uM (% Quet)
[18] = test compound at 10 uM, MBP expression relative to quetiapine, NCC library screen, sheet "All OLga data", read-out: 10 uM (% Quet)
[19] = test compound at 2 uM, MBP expression relative to quetiapine, NCC library screen, sheet "All OLga data"
[20] = test compound at 10 uM, MBP expression relative to quetiapine, NCC library screen, sheet "All OLga data"

`CCOC(=O)C1=C(C)NC(C)=C(C(=O)OCC)C1c1ccccc1/C=C/C(=O)OC(C)(C)C` [Lacidipine] showed an activation at 0.08 µM [1, 2] of -1.1%, an activation at 0.4 µM [1, 3] of -11.2% and a viability at 0.1 µM (expanded OPCs; [4]) of 64.4%. For the same compound, the viability at 1 µM (expanded OPCs; [5]) was 55.3% and the viability at 10 µM (expanded OPCs; [6]) was 8.7%.

`CC(=O)OCC(=O)NCCCOc1cccc(CN2CCCCC2)c1` [Roxatidine acetate] gave an activation at 2 µM [1, 7] of -1.7%, an activation at 10 µM [1, 8] of 8.2% and a viability at 0.1 µM (expanded OPCs; [4]) of 101%. The viability at 1 µM (expanded OPCs; [5]) was 96% and the viability at 10 µM (expanded OPCs; [6]) was 85.7%.

For `CCCSc1ccc2nc(NC(=O)OC)[nH]c2c1` [Albendazole], the activation at 0.4 µM [1] was -27.1%, the activation at 2 µM ([1]; read-out: 2 uM (% Quet)) was -112% and the “0.1 µM (% DMSO)” value (expanded OPCs; [9]) was 55.7 % DMSO. The “1 µM (% DMSO)” value (expanded OPCs; [10]) was 57.4 % DMSO and the “10 µM (% DMSO)” value (expanded OPCs; [11]) was 58.6 % DMSO.

Compound `CNC(=O)Oc1ccc2c(c1)[C@]1(C)CCN(C)[C@@H]1N2C` [Physostigmine] has an activation at 2 µM [1, 7] of -4.5%, an activation at 10 µM [1, 8] of 0.12% and a viability at 0.1 µM (expanded OPCs; [12]) of 105%. The viability at 1 µM (expanded OPCs; [13]) was 96.7% and the viability at 10 µM (expanded OPCs; [14]) was 78%.

`O=C1CC[C@@H](C(=O)N2CSC[C@H]2C(=O)O)N1` [Pidotimod] ([pGlu]-[Thz]-OH) gave an activation at 2 µM [1, 7] of 7.5%, an activation at 10 µM [1, 8] of -1.8% and a viability at 0.1 µM (expanded OPCs; [12]) of 96.9%. The viability at 1 µM (expanded OPCs; [13]) was 105% and the viability at 10 µM (expanded OPCs; [14]) was 104%.

In the case of `C[C@H](CCC(=O)O)[C@H]1CC[C@H]2[C@@H]3[C@H](O)C[C@@H]4C[C@H](O)CC[C@]4(C)[C@H]3CC[C@]12C` [Chenodeoxycholic Acid], the activation at 2 µM [1, 15] is reported as -24.3%, the activation at 10 µM [1, 16] is reported as -7.9% and the “0.1 µM (% DMSO)” value (expanded OPCs; [9]) is reported as 111.3 % DMSO. The “1 µM (% DMSO)” value (expanded OPCs; [10]) was 107.5 % DMSO and the “10 µM (% DMSO)” value (expanded OPCs; [11]) was 110.8 % DMSO.

In the case of `CC(=O)OCC(=O)[C@@]12OC(C)(C)O[C@@H]1C[C@H]1[C@@H]3C[C@H](F)C4=CC(=O)C=C[C@]4(C)[C@@]3(F)[C@@H](O)C[C@@]12C` [Fluocinonide], the activation at 2 µM [1, 17] is reported as 12.4%, the activation at 10 µM [1, 18] is reported as -24.4% and the “0.1 µM (% DMSO)” value (expanded OPCs; [9]) is reported as 108.3 % DMSO. For the same compound, the “1 µM (% DMSO)” value (expanded OPCs; [10]) was 102.9 % DMSO and the “10 µM (% DMSO)” value (expanded OPCs; [11]) was 80.4 % DMSO.

In the case of `O=C1N(c2ccccc2)c2ccccc2C1(Cc1ccncc1)Cc1ccncc1` [Linopirdine], the activation at 2 µM [1, 15] is reported as -7.9%, the activation at 10 µM [1, 16] is reported as -12.7% and the viability at 0.1 µM (expanded OPCs; [4]) is reported as 90.7%. The viability at 1 µM (expanded OPCs; [5]) was 94.5% and the viability at 10 µM (expanded OPCs; [6]) was 86.2%.

In the case of `C#C[C@]1(O)CC[C@H]2[C@@H]3[C@H](C)CC4=C(CCC(=O)C4)[C@H]3CC[C@@]21C` [Tibolone], the activation at 2 µM [1, 15] is reported as 6.5%, the activation at 10 µM [1, 16] is reported as -6.7% and the viability at 0.1 µM (expanded OPCs; [4]) is reported as 84.8%. For the same compound, the viability at 1 µM (expanded OPCs; [5]) was 85.4% and the viability at 10 µM (expanded OPCs; [6]) was 77.4%.

For `C[C@@H]1C[C@H]2[C@@H]3CCC4=CC(=O)C=C[C@]4(C)[C@@]3(F)[C@@H](O)C[C@]2(C)[C@@]1(O)C(=O)CO` [Dexamethazone], the “2 uM (% Quet)” value [1, 19] was -1.3 % Quet, the “10 uM (% Quet)” value [1, 20] was -8.3 % Quet and the “0.1 µM (% DMSO)” value (expanded OPCs; [9]) was 115.8 % DMSO. The “1 µM (% DMSO)” value (expanded OPCs; [10]) was 108.1 % DMSO and the “10 µM (% DMSO)” value (expanded OPCs; [11]) was 98.4 % DMSO.

For `CN(C)C(=O)C(CCN1CCC(O)(c2ccc(Cl)cc2)CC1)(c1ccccc1)c1ccccc1` [Loperamide], the activation at 0.08 µM [1, 2] was -0.19%, the activation at 0.4 µM [1, 3] was -17.5% and the “0.1 µM (% DMSO)” value (expanded OPCs; [9]) was 70.2 % DMSO. The “1 µM (% DMSO)” value (expanded OPCs; [10]) was 40.0 % DMSO and the “10 µM (% DMSO)” value (expanded OPCs; [11]) was 11.4 % DMSO.

In the case of `CN1CCN2c3ncccc3Cc3ccccc3C2C1` (centres unmarked) [Remergil], the “2 uM (% Quet)” value [1, 19] is reported as -49.3 % Quet, the “10 uM (% Quet)” value [1, 20] is reported as -63.5 % Quet and the “0.1 µM (% DMSO)” value (expanded OPCs) is reported as 90.1 % DMSO. For the same compound, the “1 µM (% DMSO)” value (expanded OPCs) was 82.0 % DMSO and the “10 µM (% DMSO)” value (expanded OPCs) was 62.7 % DMSO.

With `CCC1(c2ccc(N)cc2)CCC(=O)NC1=O` (centres unmarked) [Aminoglutethimide] the activation at 2 µM [1, 17] was -11%, the activation at 10 µM [1, 18] was -7.7% and the “0.1 µM (% DMSO)” value (expanded OPCs; [9]) was 94.4 % DMSO. For the same compound, the “1 µM (% DMSO)” value (expanded OPCs; [10]) was 89.6 % DMSO and the “10 µM (% DMSO)” value (expanded OPCs; [11]) was 84.0 % DMSO.
